Results taken from patent publication US9975907B2, “Pyrimidinones as PI3K inhibitors” (Incyte Corporation, priority 2009, dated 2018).

Tests used:
[1] = tested on: purified B cells from human PBMC; assay: B Cell Proliferation Assay; type: cell-based; details: anti-human IgM stimulated, three days, [3H]-thymidine incorporation
Experimental: To acquire B cells, human PBMC were isolated from the peripheral blood of normal, drug free donors by standard density gradient centrifugation on Ficoll-Hypague (GE Healthcare, Piscataway, N.J.) and incubated with anti-CD19 microbeads (Miltenyi Biotech, Auburn, Calif.). The B cells were then purified by positive immunosorting using an autoMacs (Miltenyi Biotech) according to the manufacturer's instruction.
The purified B cells (2×10^5/well/200 μL) were cultured in 96-well ultra-low binding plates (Corning, Corning, N.Y.) in RPMI1640, 10% FBS and goat F(ab′)2 anti-human IgM (10 μg/ml) (Invitrogen, Carlsbad, Calif.), in the presence of different amount of test compounds, for three days. [^3H]-thymidine (1 μCi/well) (PerkinElmer, Boston, Mass.) in PBS was then added to the B cell cultures for an additional 12 hrs before the incorporated radioactivity was separated by filtration with water through GF/B filters (Packard Bioscience, Meriden, Conn.) and measured by liquid scintillation counting with a TopCount (Packard Bioscience). Compounds having and IC^50 value of 10 μM or less are considered active. See Table 2 for data related to compounds of the invention.

[2] = target: PI3Kδ (Homo sapiens (Human), UniProt O00329); assay: PI3K Enzyme Assay A2 ([γ-33P]ATP filter plate), PI3Kδ; type: biochemical; details: column a, Examples 15, 30 and 44 used Assay A2, 1000 μM ATP
Chain of PI3Kδ (O00329 whole entry, species assumed, canonical isoform): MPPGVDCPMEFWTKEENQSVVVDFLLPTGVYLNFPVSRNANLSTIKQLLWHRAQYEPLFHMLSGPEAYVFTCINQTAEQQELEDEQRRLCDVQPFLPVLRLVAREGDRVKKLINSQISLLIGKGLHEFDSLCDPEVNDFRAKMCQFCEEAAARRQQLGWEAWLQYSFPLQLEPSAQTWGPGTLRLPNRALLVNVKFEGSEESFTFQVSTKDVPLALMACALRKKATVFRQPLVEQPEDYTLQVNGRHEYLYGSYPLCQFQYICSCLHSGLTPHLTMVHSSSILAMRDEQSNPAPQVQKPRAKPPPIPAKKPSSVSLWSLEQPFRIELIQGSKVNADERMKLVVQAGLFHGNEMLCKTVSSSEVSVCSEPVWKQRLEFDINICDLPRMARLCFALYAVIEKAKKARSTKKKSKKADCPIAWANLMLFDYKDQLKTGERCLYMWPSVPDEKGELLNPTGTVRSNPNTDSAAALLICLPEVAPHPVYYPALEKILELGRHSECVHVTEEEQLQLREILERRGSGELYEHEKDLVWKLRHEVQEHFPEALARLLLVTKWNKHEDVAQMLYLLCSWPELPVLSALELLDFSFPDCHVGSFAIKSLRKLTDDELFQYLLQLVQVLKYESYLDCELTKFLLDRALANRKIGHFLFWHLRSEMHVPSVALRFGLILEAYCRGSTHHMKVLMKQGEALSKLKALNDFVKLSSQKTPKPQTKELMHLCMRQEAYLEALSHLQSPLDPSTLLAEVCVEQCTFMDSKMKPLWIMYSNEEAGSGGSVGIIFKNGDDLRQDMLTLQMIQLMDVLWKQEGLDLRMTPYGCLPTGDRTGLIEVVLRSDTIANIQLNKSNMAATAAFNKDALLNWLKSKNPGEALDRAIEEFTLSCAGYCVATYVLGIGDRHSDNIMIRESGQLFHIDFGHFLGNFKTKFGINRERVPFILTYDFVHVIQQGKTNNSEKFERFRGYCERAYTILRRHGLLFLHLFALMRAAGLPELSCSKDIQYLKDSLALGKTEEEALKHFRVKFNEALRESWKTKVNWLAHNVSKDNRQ
Chain of PI3Kδ (P27986 whole entry partner, species assumed, canonical isoform): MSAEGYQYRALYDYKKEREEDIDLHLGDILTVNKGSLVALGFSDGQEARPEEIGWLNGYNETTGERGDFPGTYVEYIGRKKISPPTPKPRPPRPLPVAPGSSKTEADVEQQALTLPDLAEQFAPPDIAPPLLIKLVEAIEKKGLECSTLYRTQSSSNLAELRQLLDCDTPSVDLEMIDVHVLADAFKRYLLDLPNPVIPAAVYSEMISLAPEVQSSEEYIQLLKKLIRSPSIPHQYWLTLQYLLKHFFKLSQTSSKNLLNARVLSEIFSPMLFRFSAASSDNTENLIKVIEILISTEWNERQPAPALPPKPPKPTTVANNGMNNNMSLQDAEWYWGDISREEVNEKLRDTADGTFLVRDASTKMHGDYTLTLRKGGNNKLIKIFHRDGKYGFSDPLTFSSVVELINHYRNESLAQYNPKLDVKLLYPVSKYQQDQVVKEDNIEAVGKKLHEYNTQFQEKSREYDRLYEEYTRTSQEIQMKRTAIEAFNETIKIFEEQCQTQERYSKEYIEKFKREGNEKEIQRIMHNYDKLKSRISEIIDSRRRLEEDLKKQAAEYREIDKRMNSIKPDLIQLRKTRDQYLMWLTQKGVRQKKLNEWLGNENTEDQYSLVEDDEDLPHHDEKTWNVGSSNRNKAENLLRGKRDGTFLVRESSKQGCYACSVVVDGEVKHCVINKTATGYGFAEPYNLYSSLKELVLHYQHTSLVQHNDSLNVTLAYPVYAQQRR
Experimental: Materials: Lipid kinase substrate, phosphoinositol-4,5-bisphosphate (PIP2), was purchased from Echelon Biosciences (Salt Lake City, Utah). PI3K isoforms α, β, δ and γ were purchased from Millipore (Bedford, Mass.). ATP, MgCh, DTT, EDTA, MOPS and CHAPS were purchased from Sigma-Aldrich (St. Louis, Mo.). The kinase reaction was conducted in clear-bottom 96-well plate from Thermo Fisher Scientific in a final volume of 24 μL. Inhibitors were first diluted serially in DMSO and added to the plate wells before the addition of other reaction components. The final concentration of DMSO in the assay was 0.5%. The PI3K assays were carried out at room temperature in 20 mM MOPS, pH 6.7, 10 mM MgCl2, 5 mM DTT and CHAPS 0.03%. The reaction mixture was prepared containing 50 μM PIP2, kinase and varying concentration of inhibitors. Reactions were initiated by the addition of ATP containing 2.2 μCi [γ-^33P]ATP to a final concentration of 1000 μM. […] Reactions were incubated for 180 min and terminated by the addition of 100 μL of 1 M potassium phosphate pH 8.0, 30 mM EDTA quench buffer. […] After the plate sealing, the radioactivity of the product was determined by scintillation counting on Topcount (Perkin-Elmer). […]

[3] = tested on: Pfeiffer cell line (diffuse large B cell lymphoma); assay: Pfeiffer Cell Proliferation Assay; type: cell-based; details: Homo sapiens, Pfeiffer, 3-4 days, [3H]-thymidine incorporation
Experimental: Pfeiffer cell line (diffuse large B cell lymphoma) was purchased from ATCC (Manassas, Va.) and maintained in the culture medium recommended (RPMI and 10% FBS). To measure the anti-proliferation activity of the PI3Kδ submittals, the Pfeiffer cells were plated with the culture medium (2×10^3 cells/well/per 200 μl) into 96-well ultra-low binding plates (Corning, Corning, N.Y.), in the presence or absence of a concentration range of test compounds. After 3-4 days, [^3H]-thymidine (1 μCi/well) (PerkinElmer, Boston, Mass.) in PBS was then added to the cell culture for an additional 12 hrs before the incorporated radioactivity was separated by filtration with water through GF/B filters (Packard Bioscience, Meriden, Conn.) and measured by liquid scintillation counting with a TopCount (Packard Bioscience). See Table 3 for data related to compounds of the invention.

Measured: IC50

Cc1csc2nc(C(C)Nc3ncnc4[nH]cnc34)c(-c3cc(F)cc(F)c3)c(=O)n12 (single isomer, unassigned) [Example 44, 6-(3,5-difluorophenyl)-3-methyl-7-[1-(9H-purin-6-ylamino)ethyl]-5H-[1,3]thiazolo[3,2-a]pyrimidin-5-one]
< 50 nM: all assays above
